Measurements from PubChem BioAssay AID624409 (The Scripps Research Institute Molecular Screening Center, 2012).
Activity calls are given as the source filed them.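 Rule for the calls: active = IC50 at or below 10 µM; inactive = IC50 above 10 µM.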

Biological target: Orexin/Hypocretin receptor type 1 (Homo sapiens) (UniProt O43613)
Experiment: HCRTR1 antagonism, orexin A-evoked calcium – fluorescence, Fluo-8, CHO cells, powder samples, late-stage follow-up (AID 624409)
Conditions: CHO/OX1R cells, Fluo-8 calcium fluorescence

Orexin/Hypocretin receptor type 1 (Homo sapiens), sequence (O43613 whole entry, looked up): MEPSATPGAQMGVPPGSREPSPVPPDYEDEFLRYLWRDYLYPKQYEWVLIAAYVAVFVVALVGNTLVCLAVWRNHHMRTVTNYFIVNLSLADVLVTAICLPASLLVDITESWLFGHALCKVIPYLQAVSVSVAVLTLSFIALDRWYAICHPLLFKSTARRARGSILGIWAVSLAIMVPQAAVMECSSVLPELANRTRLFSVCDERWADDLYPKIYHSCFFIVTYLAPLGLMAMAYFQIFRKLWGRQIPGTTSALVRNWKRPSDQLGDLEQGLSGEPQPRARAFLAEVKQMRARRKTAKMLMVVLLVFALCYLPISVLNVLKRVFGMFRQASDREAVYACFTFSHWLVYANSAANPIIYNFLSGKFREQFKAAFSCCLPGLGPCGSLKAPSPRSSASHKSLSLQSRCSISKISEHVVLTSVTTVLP

Row | SMILES | IC50
1 | Cc1c(NS(=O)(=O)c2cccc(C(=O)OCC(=O)N(C)C3CCCCC3)c2)c(=O)n(-c2ccccc2)n1C | inactive
2 | COCCCNC(=O)CCC(=O)NNc1nc2ccccc2c2nc(-c3ccccc3)nn12 | inactive
3 | Cc1cccc(C=NNC(=O)c2cc3c(s2)-c2ccccc2CC3)c1 | 2.67 µM
4 | Fc1cccc(Nc2nc3ccccc3n3cnnc23)c1 | > 59.6 µM (inactive)
5 | COc1cccc(/C=C2/Oc3ccccc3N(CC(=O)NCC3CCCO3)C2=O)c1 (stereo unspecified) | 3.8 µM
6 | CCSC1=C(C#N)C(c2ccccc2Cl)C(C(=O)c2cccs2)C(O)(C(F)(F)F)N1 (stereo unspecified) | 4.97 µM
7 | CSc1cccc(NC(=O)C2CCCN2S(=O)(=O)c2ccc(Br)s2)c1 (stereo unspecified) | 4.67 µM
8 | CSc1cccc(N2CC(C(=O)NCCN3C(=O)S/C(=C\c4cccnc4)C3=O)CC2=O)c1 (stereo unspecified) | > 19.9 µM (inactive)
9 | COc1cc(OC)c(-c2nc3ccccc3s2)cc1OC | inactive
10 | COc1ccc(OC)c(S(=O)(=O)NCC(c2ccco2)N2CCc3ccccc32)c1 (stereo unspecified) | 7.12 µM
11 | O=c1cc(CN2CC(O)Cc3ccc4ccccc4c32)nc2sccn12 (stereo unspecified) | > 19.9 µM (inactive)
12 | CN(N=Cc1cc([N+](=O)[O-])ccc1O)c1ccccc1 | > 59.6 µM (inactive)
13 | CC(=C/c1ccccc1)/C=C1/SC(N2CCOCC2)=NC1=O | 9.14 µM
14 | Cc1ccccc1NC(=O)C1CCCN1S(=O)(=O)c1ccccc1C(F)(F)F (stereo unspecified) | > 19.9 µM (inactive)
15 | Cc1cc(Cl)ccc1OCCCC(=O)NCCN1C(=O)S/C(=C\c2cccnc2)C1=O | 1.38 µM
16 | O=C(CSc1ccc(-c2ccccc2)nn1)c1cccs1 | 7.92 µM
17 | Cc1cccc(NC(=O)[C@@H]2CCCN2S(=O)(=O)c2ccc(Cl)cc2)c1 | > 19.9 µM (inactive)
18 | O=C(CN1C(=O)/C(=C\c2cccc(Br)c2)Oc2ccccc21)NCC1CCCO1 (stereo unspecified) | 5.01 µM

Second part, the compound after the results:

Row | IC50 | SMILES
19 | inactive | Cc1ccc(-c2csc3nnc(SCC(=O)Nc4nsc(-c5ccccc5)n4)n23)cc1
20 | inactive | CCc1cc(C(=O)OCC(=O)N2CCC(c3ccccc3)=N2)sc1C
21 | inactive | CCOc1ccccc1C(=O)Nc1ccc2nc3n(c(=O)c2c1)CCCCC3
22 | inactive | CCn1c(SCC(=O)Nc2ccc3c(c2)c2ccccc2n3CC)nnc1-c1cnccn1
23 | > 59.6 µM (inactive) | CCOC(=O)N1CCN(C(=O)CSc2ccc(-c3ccccc3)nn2)CC1
24 | > 19.9 µM (inactive) | Cc1noc(C)c1COc1ccc(C(=O)OCC(=O)N2CC(=O)Nc3ccccc32)cc1
25 | > 59.6 µM (inactive) | CCN(CC)c1ccc(NC(=O)Cn2c(C(C)NC(=O)c3ccccc3)nc3ccccc32)cc1 (stereo unspecified)
26 | > 59.6 µM (inactive) | CCc1cc2c(SCC(=O)N(CC)c3c(N)n(Cc4ccccc4)c(=O)[nH]c3=O)ncnc2s1
